ChEMBL document CHEMBL6109152, “Harnessing the SPOP E3 Ubiquitin Ligase via a Bridged Proteolysis Targeting Chimera (PROTAC) Strategy for Targeted Protein Degradation” (J Med Chem, 2025)
Active and inactive are the calls of the source. No cut-off for these calls is given here.

Legend:
[1] = biological target: T1, Bromodomain-containing protein 4 (Homo sapiens, UniProt O60885); experiment: Inhibition of BRD4 in human HT-29 cells assessed as decrease in c-MYC protein level by measuring fold change at 0.156 uM incubated for 24 hrs by Western blot analysis (reference value: 1.00); format: cell-based
HT-29 [2] = experiment: Effect on BRD4 long isoform mRNA level in human HT-29 cells at 1 to 10 uM incubated for 24 hrs by RT-qPCR analysis; format: functional, cell-based; conditions: dose 1-10 µM
[3] = biological target: T1, Bromodomain-containing protein 4; experiment: Inhibition of BRD4 in human HT-29 cells assessed as decrease in c-MYC protein level by measuring fold change at 2.5 uM incubated for 24 hrs by Western blot analysis (reference value: 1.00); format: cell-based
[4] = biological target: T1, Bromodomain-containing protein 4; experiment: Binding affinity to BRD4-BD2 domain (unknown origin) assessed as assessed as dissociation constant by ITC analysis
[5] = biological target: T1, Bromodomain-containing protein 4; experiment: Inhibition of BRD4 in human HT-29 cells assessed as decrease in c-MYC protein level by measuring fold change at 1.25 uM incubated for 24 hrs by Western blot analysis (reference value: 1.00); format: cell-based
[6] = biological target: T2, Speckle-type POZ protein-Bromodomain-containing protein 4 (Homo sapiens, UniProt O60885+O43791); experiment: PROTAC activity at SPOP/BRD4-S in human HT-29 cells assessed as induction of BRD4 short isoform degradation by measuring fold change at 0.625 uM incubated for 24 hrs by Western blotting analysis (reference value: 1.00); format: cell-based
T2 sequence (O43791 whole entry, looked up, other chains not shown, canonical isoform): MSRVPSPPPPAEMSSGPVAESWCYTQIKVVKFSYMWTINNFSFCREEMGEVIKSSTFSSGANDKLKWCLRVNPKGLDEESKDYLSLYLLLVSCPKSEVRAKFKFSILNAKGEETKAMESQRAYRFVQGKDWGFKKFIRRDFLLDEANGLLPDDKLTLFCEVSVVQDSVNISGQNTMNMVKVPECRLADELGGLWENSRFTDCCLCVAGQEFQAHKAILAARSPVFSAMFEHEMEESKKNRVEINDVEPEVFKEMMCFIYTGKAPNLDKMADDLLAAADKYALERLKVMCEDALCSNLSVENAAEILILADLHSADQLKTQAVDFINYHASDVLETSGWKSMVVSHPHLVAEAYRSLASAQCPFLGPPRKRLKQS

HEK293T = experiment: Binding affinity to BRD4-L/GLP/SPOP in HEK293T cells assessed as compound-BRD4-GLP-SPOP quaternary complex formation at 20 to 100 uM incubated for 1 hrs by pulldown based Western blot analysis; format: cell-based; conditions: Homo sapiens, dose 20-100 µM
HT-29 [7] = experiment: Effect on BRD2 mRNA level in human HT-29 cells at 1 to 10 uM incubated for 24 hrs by RT-qPCR analysis; format: functional, cell-based; conditions: dose 1-10 µM
[8] = biological target: T3, Speckle-type POZ protein-Bromodomain-containing protein 3 (Homo sapiens) (UniProt Q15059+O43791); experiment: PROTAC activity at SPOP/BRD3 in human HT-29 cells assessed as induction of BRD3 degradation by measuring fold change at 1.25 uM incubated for 24 hrs by Western blot analysis (reference value: 1.00); format: cell-based
T3 sequence (O43791 whole entry, looked up): as the sequence (O43791 whole entry, looked up, other chains not shown, canonical isoform) above
T3 sequence (Q15059 whole entry, looked up): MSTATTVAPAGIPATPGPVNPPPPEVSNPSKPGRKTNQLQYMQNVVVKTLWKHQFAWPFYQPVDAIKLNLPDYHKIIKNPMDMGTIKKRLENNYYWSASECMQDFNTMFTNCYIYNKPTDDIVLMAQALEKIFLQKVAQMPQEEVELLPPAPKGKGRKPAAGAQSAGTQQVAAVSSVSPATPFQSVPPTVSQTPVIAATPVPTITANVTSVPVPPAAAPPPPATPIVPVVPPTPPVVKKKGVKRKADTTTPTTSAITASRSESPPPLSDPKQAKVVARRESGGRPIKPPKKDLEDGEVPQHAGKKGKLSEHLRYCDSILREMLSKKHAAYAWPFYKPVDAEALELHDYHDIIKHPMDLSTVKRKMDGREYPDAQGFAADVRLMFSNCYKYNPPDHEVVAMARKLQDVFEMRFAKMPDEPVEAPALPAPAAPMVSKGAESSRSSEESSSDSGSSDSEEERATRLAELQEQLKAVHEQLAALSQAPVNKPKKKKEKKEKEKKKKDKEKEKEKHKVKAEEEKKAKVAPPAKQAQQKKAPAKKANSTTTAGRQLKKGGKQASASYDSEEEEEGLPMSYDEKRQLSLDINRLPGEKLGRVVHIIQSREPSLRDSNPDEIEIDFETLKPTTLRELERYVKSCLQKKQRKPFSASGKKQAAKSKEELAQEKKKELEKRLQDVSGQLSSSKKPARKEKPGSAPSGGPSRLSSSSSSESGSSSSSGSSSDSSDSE

[9] = biological target: Speckle-type POZ protein-Bromodomain-containing protein 2 (Homo sapiens) (UniProt P25440+O43791); experiment: PROTAC activity at SPOP/BRD2 in human HT-29 cells assessed as induction of BRD2 degradation by measuring fold change at 2.5 uM incubated for 24 hrs by Western blot analysis (reference value: 1.00); format: cell-based
Speckle-type POZ protein-Bromodomain-containing protein 2 (Homo sapiens), sequence (O43791 whole entry, looked up): as the sequence (O43791 whole entry, looked up, other chains not shown, canonical isoform) above
Speckle-type POZ protein-Bromodomain-containing protein 2 (Homo sapiens), sequence (P25440 whole entry, looked up): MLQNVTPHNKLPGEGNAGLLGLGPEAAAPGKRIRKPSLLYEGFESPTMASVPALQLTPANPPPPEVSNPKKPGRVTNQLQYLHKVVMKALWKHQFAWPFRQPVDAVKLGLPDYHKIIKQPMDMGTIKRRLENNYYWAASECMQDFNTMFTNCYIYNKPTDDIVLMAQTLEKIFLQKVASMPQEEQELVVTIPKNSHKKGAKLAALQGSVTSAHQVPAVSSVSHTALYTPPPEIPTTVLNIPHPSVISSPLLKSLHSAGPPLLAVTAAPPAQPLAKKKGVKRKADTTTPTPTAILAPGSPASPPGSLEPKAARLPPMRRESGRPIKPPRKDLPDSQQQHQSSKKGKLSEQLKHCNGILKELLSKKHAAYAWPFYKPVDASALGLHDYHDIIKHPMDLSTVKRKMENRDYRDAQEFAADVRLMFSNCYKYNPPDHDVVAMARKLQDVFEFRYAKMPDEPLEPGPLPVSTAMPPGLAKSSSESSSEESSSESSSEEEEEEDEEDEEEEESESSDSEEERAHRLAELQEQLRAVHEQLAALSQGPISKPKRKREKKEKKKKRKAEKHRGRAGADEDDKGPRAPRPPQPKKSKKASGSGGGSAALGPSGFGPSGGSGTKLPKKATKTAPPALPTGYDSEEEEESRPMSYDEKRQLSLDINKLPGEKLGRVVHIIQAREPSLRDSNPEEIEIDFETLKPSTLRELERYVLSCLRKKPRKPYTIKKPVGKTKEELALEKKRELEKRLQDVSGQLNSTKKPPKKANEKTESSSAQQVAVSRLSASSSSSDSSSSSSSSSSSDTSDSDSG

HT-29 [10] = experiment: Downregulation of c-MYC mRNA level in human HT-29 cells at 5 to 10 uM incubated for 24 hrs by RT-qPCR analysis; format: functional, cell-based; conditions: dose 5-10 µM
[11] = biological target: T3, Speckle-type POZ protein-Bromodomain-containing protein 3 (Homo sapiens); experiment: PROTAC activity at SPOP/BRD3 in human HT-29 cells assessed as induction of BRD3 degradation by measuring fold change at 10 uM incubated for 24 hrs by Western blot analysis (reference value: 1.00); format: cell-based
[12] = biological target: T2, Speckle-type POZ protein-Bromodomain-containing protein 4; experiment: PROTAC activity at SPOP/BRD4-L in human HT-29 cells assessed as induction of BRD4 long isoform degradation by measuring fold change at 1.25 uM incubated for 24 hrs by Western blotting analysis (reference value: 1.00); format: cell-based
[13] = biological target: T2, Speckle-type POZ protein-Bromodomain-containing protein 4; experiment: PROTAC activity at SPOP/BRD4-S in human HT-29 cells assessed as induction of BRD4 short isoform degradation at 0.5 to 5 uM incubated for 24 hrs by Western blotting analysis; format: cell-based; conditions: dose 0.5-5 µM
[14] = biological target: T1, Bromodomain-containing protein 4; experiment: Inhibition of BRD4 in human HT-29 cells assessed as decrease in c-MYC protein level by measuring fold change at 0.625 uM incubated for 24 hrs by Western blot analysis (reference value: 1.00); format: cell-based
[15] = biological target: T2, Speckle-type POZ protein-Bromodomain-containing protein 4; experiment: PROTAC activity at SPOP/BRD4-S in human MDA-MB-231 cells assessed as induction of BRD4 short isoform degradation at 0.1 to 5 uM incubated for 24 hrs by Western blotting analysis; format: cell-based; conditions: dose 0.1-5 µM
[16] = biological target: T3, Speckle-type POZ protein-Bromodomain-containing protein 3 (Homo sapiens); experiment: PROTAC activity at SPOP/BRD3 in human HT-29 cells assessed as induction of BRD3 degradation at 5 uM measured after >=48 hrs by Western blot analysis; format: cell-based
[17] = biological target: T2, Speckle-type POZ protein-Bromodomain-containing protein 4; experiment: PROTAC activity at SPOP/BRD4-L in human HT-29 cells assessed as induction of BRD4 long isoform degradation by measuring fold change at 0.625 uM incubated for 24 hrs by Western blotting analysis (reference value: 1.00); format: cell-based
PNT2 = experiment: Cytotoxicity against human PNT2 assessed as reduction in cell growth at 0.021 to 10 uM incubated for 72 hrs by WST-8 reagent based assay; format: toxicity; conditions: pnt2, 72 h, dose 0.021-10 µM
[18] = biological target: T1, Bromodomain-containing protein 4; experiment: Inhibition of BRD4 in human HT-29 cells assessed as decrease in c-MYC protein level by measuring fold change at 5 uM incubated for 24 hrs by Western blot analysis (reference value: 1.00); format: cell-based
[19] = biological target: T3, Speckle-type POZ protein-Bromodomain-containing protein 3 (Homo sapiens); experiment: PROTAC activity at SPOP/BRD3 in human HT-29 cells assessed as induction of BRD3 degradation by measuring fold change at 5 uM incubated for 24 hrs by Western blot analysis (reference value: 1.00); format: cell-based
[20] = biological target: T2, Speckle-type POZ protein-Bromodomain-containing protein 4; experiment: PROTAC activity at SPOP/BRD4-L in human HT-29 cells assessed as induction of BRD4 long isoform degradation by measuring fold change at 2.5 uM incubated for 24 hrs by Western blotting analysis (reference value: 1.00); format: cell-based

fold change (FC) [1]: 1 | fold change (FC) [3]: 0.1 | Kd [4]: 200 nM | fold change (FC) [5]: 0.4 | fold change (FC) [6]: 0.9 | fold change (FC) [8]: 0.7 | fold change (FC) [9]: 1 | fold change (FC) [11]: 0.5 | fold change (FC) [12]: 1.2 | Activity [13]: Active | fold change (FC) [14]: 0.7 | Activity [15]: Active | Activity [16]: Active | fold change (FC) [17]: 1.2 | fold change (FC) [18]: 0.03 | fold change (FC) [19]: 0.6 | fold change (FC) [20]: 1.2
Structure (SMILES): COc1cc2c(NC3CCN(CCCC(=O)NCCCCCCCCCCNC(=O)C[C@@H]4N=C(c5ccc(Cl)cc5)c5c(sc(C)c5C)-n5c(C)nnc54)CC3)cc(N3CCOCC3)nc2cc1OCCCN1CCCC1
Activity (HT-29 [2]): inactive | Activity (HEK293T): Active | Activity (HT-29 [7]): inactive | Activity (HT-29 [10]): Active | Activity (PNT2): Non-toxic
